From ChEMBL document CHEMBL1201861, “Genomics of Drug Sensitity in Cancer screening data, Wellcome Trust Sanger Institute”
pIC50: −log10 of the molar value.

Legend:
EB2 = test: cells; type: functional, cell-based; conditions: Homo sapiens;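 further: growth inhibition of EB2 cells, read out with a cell viability assay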
Description: SANGER: Inhibition of human EB2 cell growth in a cell viability assay.

LC-1F = test: cells; type: functional, cell-based; conditions: Homo sapiens;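 further: growth inhibition of human LC-1F cells, read out with a cell viability assay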
Description: SANGER: Inhibition of human LC-1F cell growth in a cell viability assay.

LC4-1 = test: cells; type: functional, cell-based; conditions: Homo sapiens;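 further: growth inhibition of LC4-1 cells, read out with a cell viability assay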
Description: SANGER: Inhibition of human LC4-1 cell growth in a cell viability assay.

MONO-MAC-6 = test: cells; type: functional, cell-based; conditions: Homo sapiens;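 further: cell viability assay measuring growth inhibition of human MONO-MAC-6 cells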
Description: SANGER: Inhibition of human MONO-MAC-6 cell growth in a cell viability assay.

NB1 = test: cells; type: functional, cell-based; conditions: Homo sapiens;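 further: reduction of NB1 cell proliferation, read out with a viability assay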
Description: SANGER: Inhibition of human NB1 cell growth in a cell viability assay.

NCCIT = test: SANGER: Inhibition of human NCCIT cell growth in a cell viability assay.; type: functional, cell-based
NCI-H128 = test: SANGER: Inhibition of human NCI-H128 cell growth in a cell viability assay.; type: functional, cell-based
NCI-H187 = test: cells; type: functional, cell-based; conditions: Homo sapiens;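 further: growth inhibition of NCI-H187 cells, read out as cell viability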
Description: SANGER: Inhibition of human NCI-H187 cell growth in a cell viability assay.

NCI-H1963 = test: cells; type: functional, cell-based; conditions: Homo sapiens;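 further: cell growth inhibition of the human line, determined with a cell viability assay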
Description: SANGER: Inhibition of human NCI-H1963 cell growth in a cell viability assay.

NCI-H2107 = test: SANGER: Inhibition of human NCI-H2107 cell growth in a cell viability assay.; type: functional, cell-based
NCI-H2171 = test: cells; type: functional, cell-based; conditions: Homo sapiens;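 further: growth inhibition of human NCI-H2171 cells, read out by a cell viability assay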
Description: SANGER: Inhibition of human NCI-H2171 cell growth in a cell viability assay.

NCI-H2196 = test: cells; type: functional, cell-based; conditions: Homo sapiens;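 further: cell viability assay used as the readout of growth inhibition in NCI-H2196 cells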
Description: SANGER: Inhibition of human NCI-H2196 cell growth in a cell viability assay.

NCI-H2227 = test: cells; type: functional, cell-based; conditions: Homo sapiens;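 further: growth inhibition of the human cell line, read out with a cell viability assay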
Description: SANGER: Inhibition of human NCI-H2227 cell growth in a cell viability assay.

NCI-H322M = test: cells; type: functional, cell-based; conditions: Homo sapiens;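 further: cell viability assay measuring inhibition of growth of human NCI-H322M cells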
Description: SANGER: Inhibition of human NCI-H322M cell growth in a cell viability assay.

NCI-H716 = test: cells; type: functional, cell-based; conditions: Homo sapiens;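 further: growth inhibition of human NCI-H716 cells, measured by a cell viability assay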
Description: SANGER: Inhibition of human NCI-H716 cell growth in a cell viability assay.

NCI-H719 = test: cells; type: functional, cell-based; conditions: Homo sapiens;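 further: growth inhibition of the cultured cell line, read out with a viability assay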
Description: SANGER: Inhibition of human NCI-H719 cell growth in a cell viability assay.

OPM-2 = test: cells; type: functional, cell-based; conditions: Homo sapiens;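 further: growth of OPM-2 cells measured with a viability assay, IC50 for suppression of proliferation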
Description: SANGER: Inhibition of human OPM-2 cell growth in a cell viability assay.

P31-FUJ = test: cells; type: functional, cell-based; conditions: Homo sapiens;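 further: growth inhibition of P31-FUJ cells, read out with a viability assay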
Description: SANGER: Inhibition of human P31-FUJ cell growth in a cell viability assay.

RL95-2 = test: cells; type: functional, cell-based; conditions: Homo sapiens;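 further: RL95-2 growth inhibition determined through a cell viability readout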
Description: SANGER: Inhibition of human RL95-2 cell growth in a cell viability assay.

RPMI 8402 = test: SANGER: Inhibition of human RPMI-8402 cell growth in a cell viability assay.; type: functional, cell-based
SCC-3 = test: cells; type: functional, cell-based; conditions: Homo sapiens;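 further: cell viability assay measuring inhibition of SCC-3 cell growth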
Description: SANGER: Inhibition of human SCC-3 cell growth in a cell viability assay.

SIG-M5 = test: cells; type: functional, cell-based; conditions: Homo sapiens;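 further: cell viability assay read-out, measuring how strongly growth of cultured human SIG-M5 cells is inhibited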
Description: SANGER: Inhibition of human SIG-M5 cell growth in a cell viability assay.

SKM-1 = test: SANGER: Inhibition of human SKM-1 cell growth in a cell viability assay.; type: functional, cell-based
SR = test: cells; type: functional, cell-based; conditions: Homo sapiens
Description: SANGER: Inhibition of human SR cell growth in a cell viability assay.

ARH-77 = test: cells; type: functional, cell-based; conditions: Homo sapiens;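 further: growth inhibition of ARH-77 cells, read out by a cell viability assay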
Description: SANGER: Inhibition of human ARH-77 cell growth in a cell viability assay.

THP-1 = test: cells; type: functional, cell-based; conditions: Homo sapiens;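 further: growth inhibition of THP-1 cells, read out via a cell viability assay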
Description: SANGER: Inhibition of human THP-1 cell growth in a cell viability assay.

TUR = test: cells; type: functional, cell-based; conditions: Homo sapiens;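 further: growth inhibition of human TUR cells, read out with a cell viability assay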
Description: SANGER: Inhibition of human TUR cell growth in a cell viability assay.

CHP-126 = test: cells; type: functional, cell-based; conditions: Homo sapiens
Description: SANGER: Inhibition of human CHP-126 cell growth in a cell viability assay.

D-566MG = test: cells; type: functional, cell-based; conditions: Homo sapiens
H-EMC-SS = test: cells; type: functional, cell-based; conditions: Homo sapiens
Description: SANGER: Inhibition of human H-EMC-SS cell growth in a cell viability assay.

KNS-62 = test: cells; type: functional, cell-based; conditions: Homo sapiens;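 further: inhibition of cell growth, read out with a cell viability assay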
Description: SANGER: Inhibition of human KNS-62 cell growth in a cell viability assay.

LU-135 = test: cells; type: functional, cell-based; conditions: Homo sapiens
Description: SANGER: Inhibition of human LU-135 cell growth in a cell viability assay.

NBsusSR = test: cells; type: functional, cell-based; conditions: Homo sapiens;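 further: growth inhibition of the human cell line, read out with a cell viability assay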
Description: SANGER: Inhibition of human NBsusSR cell growth in a cell viability assay.

NCI-H1573 = test: cells; type: functional, cell-based; conditions: Homo sapiens;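 further: growth inhibition of NCI-H1573 cells, read out with a cell viability assay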
Description: SANGER: Inhibition of human NCI-H1573 cell growth in a cell viability assay.

NCI-H2009 = test: cells; type: functional, cell-based, Homo sapiens; conditions: Homo sapiens, NCI-H2009;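 further: cell viability assay measuring inhibition of NCI-H2009 cell growth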
Description: SANGER: Inhibition of human NCI-H2009 cell growth in a cell viability assay.

NCI-H522 = test: cells; type: functional, cell-based, Homo sapiens; conditions: Homo sapiens, NCI-H522;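 further: cell viability assay measuring growth inhibition of human NCI-H522 cells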
Description: SANGER: Inhibition of human NCI-H522 cell growth in a cell viability assay.

OC-314 = test: cells; type: functional, cell-based; conditions: Homo sapiens
Description: SANGER: Inhibition of human OC-314 cell growth in a cell viability assay.

BALL-1 = test: cells; type: functional, cell-based; conditions: Homo sapiens;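 further: growth inhibition of BALL-1 cells, read out with a cell viability assay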
Description: SANGER: Inhibition of human BALL-1 cell growth in a cell viability assay.

TI-73 = test: cells; type: functional, cell-based; conditions: Homo sapiens;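 further: cell viability assay measuring how much compounds suppress growth of the cultured cell line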
Description: SANGER: Inhibition of human TI-73 cell growth in a cell viability assay.

ZR-75-30 = test: cells; type: functional, cell-based; conditions: Homo sapiens;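 further: growth inhibition of ZR-75-30 cells, measured with a cell viability readout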
Description: SANGER: Inhibition of human ZR-75-30 cell growth in a cell viability assay.

CHP-134 = test: SANGER: Inhibition of human CHP-134 cell growth in a cell viability assay.; type: functional, cell-based

Row | SMILES | pIC50 (EB2) | pIC50 (LC-1F) | pIC50 (LC4-1) | pIC50 (MONO-MAC-6) | pIC50 (NB1) | pIC50 (NCCIT) | pIC50 (NCI-H128) | pIC50 (NCI-H187) | pIC50 (NCI-H1963) | pIC50 (NCI-H2107) | pIC50 (NCI-H2171) | pIC50 (NCI-H2196) | pIC50 (NCI-H2227) | pIC50 (NCI-H322M) | pIC50 (NCI-H716) | pIC50 (NCI-H719) | pIC50 (OPM-2) | pIC50 (P31-FUJ) | pIC50 (RL95-2) | pIC50 (RPMI 8402) | further results
1 | CC1=C2C[C@H]3[C@@H](CC=C4C[C@@H](O)CC[C@@]43C)[C@@H]2CC[C@]12O[C@@H]1C[C@H](C)CN[C@H]1[C@H]2C [CYCLOPAMINE] | < 4.80 | < 4.80 | < 4.80 | < 4.80 | < 4.80 | < 4.80 | < 4.80 | < 4.80 | < 4.80 | < 4.80 | < 4.80 | < 4.80 | < 4.80 | < 4.80 | < 4.80 | < 4.80 | < 4.80 | < 4.80 | < 4.80 | 4.80 | pIC50 (SCC-3): < 4.80; pIC50 (SIG-M5): < 4.80; pIC50 (SKM-1): < 4.80; pIC50 (SR): < 4.80; pIC50 (ARH-77): < 4.80; pIC50 (THP-1): < 4.80; pIC50 (TUR): < 4.80; pIC50 (CHP-126): < 4.80
2 | CS(=O)(=O)CCNCc1ccc(-c2ccc3ncnc(Nc4ccc(OCc5cccc(F)c5)c(Cl)c4)c3c2)o1 [LAPATINIB] | < 5.70 | 5.86 | < 5.70 | < 5.70 | < 5.70 | < 5.70 | < 5.70 | < 5.70 | < 5.70 | < 5.70 | < 5.70 | < 5.70 | < 5.70 | < 5.70 | < 5.70 | < 5.70 | < 5.70 | < 5.70 | < 5.70 | < 5.70 | pIC50 (SCC-3): < 5.70; pIC50 (SIG-M5): < 5.70; pIC50 (SKM-1): < 5.70; pIC50 (SR): < 5.70; pIC50 (ARH-77): < 5.70; pIC50 (THP-1): < 5.70; pIC50 (TUR): < 5.70; pIC50 (CHP-126): < 5.70
3 | CCc1nc(N)nc(N)c1-c1ccc(Cl)cc1 [PYRIMETHAMINE] | < 4.70 | < 4.70 | < 4.70 | 4.79 | < 4.70 | 5.16 | < 4.70 | < 4.70 | < 4.70 | < 4.70 | < 4.70 | < 4.70 | < 4.70 | < 4.70 | < 4.70 | < 4.70 | < 4.70 | < 4.70 | 4.80 | 5.09 | pIC50 (SCC-3): 5.73; pIC50 (SIG-M5): 5.10; pIC50 (SKM-1): < 4.70; pIC50 (SR): 4.78; pIC50 (ARH-77): 4.71; pIC50 (THP-1): < 4.70; pIC50 (TUR): < 4.70; pIC50 (CHP-126): < 4.70
4 | CNC(=O)c1cc(Oc2ccc(NC(=O)Nc3ccc(Cl)c(C(F)(F)F)c3)cc2)ccn1 [SORAFENIB] | < 5.40 | < 5.40 | < 5.40 | 8.38 | < 5.40 | < 5.40 | < 5.40 | < 5.40 | < 5.40 | < 5.40 | 5.62 | < 5.40 | < 5.40 | < 5.40 | < 5.40 | < 5.40 | < 5.40 | < 5.40 | < 5.40 | < 5.40 | pIC50 (SCC-3): < 5.40; pIC50 (SIG-M5): 5.62; pIC50 (SKM-1): < 5.40; pIC50 (SR): < 5.40; pIC50 (ARH-77): < 5.40; pIC50 (THP-1): < 5.40; pIC50 (TUR): < 5.40; pIC50 (CHP-126): < 5.40
5 | O=C(/C=C/c1ccccc1)NC(NC(=S)Nc1cccc2cccnc12)C(Cl)(Cl)Cl (centres undefined) [SALUBRINAL] | < 4.80 | < 4.80 | < 4.80 | 4.98 | < 4.80 | 4.94 | < 4.80 | < 4.80 | < 4.80 | < 4.80 | < 4.80 | < 4.80 | < 4.80 | < 4.80 | < 4.80 | < 4.80 | < 4.80 | < 4.80 | < 4.80 | < 4.80 | pIC50 (SCC-3): < 4.80; pIC50 (SIG-M5): < 4.80; pIC50 (SKM-1): < 4.80; pIC50 (SR): < 4.80; pIC50 (ARH-77): < 4.80; pIC50 (THP-1): < 4.80; pIC50 (TUR): < 4.80; pIC50 (CHP-126): < 4.80
6 | CCOc1nc(NC(=O)Cc2cc(OC)ccc2OC)cc(N)c1C#N |  |  |  |  |  |  |  |  |  |  |  |  |  |  |  |  |  |  |  |  | pIC50 (D-566MG): < 5.00; pIC50 (H-EMC-SS): < 5.00; pIC50 (KNS-62): < 5.00; pIC50 (LU-135): < 5.00; pIC50 (NBsusSR): < 5.00; pIC50 (NCI-H1573): < 5.00; pIC50 (NCI-H2009): < 5.00; pIC50 (NCI-H522): < 5.00; pIC50 (OC-314): < 5.00; pIC50 (BALL-1): < 5.00; pIC50 (TI-73): < 5.00; pIC50 (ZR-75-30): < 5.00; pIC50 (CHP-134): < 5.00
7 | C=CCNC1=C2C[C@@H](C)C[C@H](OC)[C@H](O)[C@@H](C)/C=C(\C)[C@H](OC(N)=O)[C@@H](OC)/C=C\C=C(/C)C(=O)NC(=CC1=O)C2=O [TANESPIMYCIN] |  |  |  |  |  |  |  |  |  |  |  |  |  |  |  |  |  |  |  |  | pIC50 (D-566MG): 8.41; pIC50 (H-EMC-SS): < 6.00; pIC50 (KNS-62): 6.49; pIC50 (LU-135): < 6.00; pIC50 (NBsusSR): 6.43; pIC50 (NCI-H1573): 6.34; pIC50 (NCI-H2009): 6.07; pIC50 (NCI-H522): 6.06; pIC50 (OC-314): 6.78; pIC50 (BALL-1): < 6.00; pIC50 (TI-73): 7.75; pIC50 (ZR-75-30): < 6.00; pIC50 (CHP-134): < 6.00
8 | CC(=O)O[C@@H]1[C@@H](OC(C)=O)[C@@H](O)[C@H](Oc2c(-c3ccc(O)cc3)oc3cc(O)cc(O)c3c2=O)O[C@H]1C |  |  |  |  |  |  |  |  |  |  |  |  |  |  |  |  |  |  |  |  | pIC50 (D-566MG): < 5.00; pIC50 (H-EMC-SS): < 5.00; pIC50 (KNS-62): < 5.00; pIC50 (LU-135): < 5.00; pIC50 (NBsusSR): < 5.00; pIC50 (NCI-H1573): < 5.00; pIC50 (NCI-H2009): < 5.00; pIC50 (NCI-H522): < 5.00; pIC50 (OC-314): < 5.00; pIC50 (BALL-1): < 5.00; pIC50 (TI-73): < 5.00; pIC50 (ZR-75-30): < 5.00; pIC50 (CHP-134): < 5.00
